System: SARS-CoV-2
Test: microbe, parasite or virus in culture
Settings: Severe acute respiratory syndrome coronavirus 2, Vero C1008, 48 h

Row | SMILES | IC50 [µM] | IC50 (read-out: pIC50 (converted)) [µM]
1 | CC(C)c1ccc2c(c1)c(SC(C)(C)C)c(CC(C)(C)C(=O)O)n2Cc1ccc(Cl)cc1 | > 20 | > 20
2 | COP(=O)(OC)OC=C(Cl)Cl [DICHLORVOS] | > 20 | > 20
3 | COc1ccc(C(=O)Cc2c(CCN(C)C)cc3c(c2OC)OCO3)c(C(=O)O)c1OC [NARCEINE] | > 20 | > 20
4 | CNC(=O)c1cccc(NCC(=O)NCCc2ccc(OC)c(OC)c2)c1 [ECABAPIDE] | > 20 | > 20
5 | CN1CC[C@]23CCCC[C@H]2[C@H]1Cc1ccc(O)cc13 [LEVORPHANOL] | > 20 | > 20
6 | O=C(Nc1ccc(C(=O)N2C[C@H]3COCCN3Cc3ccccc32)c(Cl)c1)c1ccccc1-c1ccccc1 | > 20 | > 20
7 | NC(=O)CCCCC1CCSS1 (configuration not stated) [THIOCTIC ACID AMIDE] | > 20 | > 20
8 | CN1C2CCC1CC(O)C2 (configuration not stated) | > 20 | > 20
9 | CC[C@H](C)C(=O)O[C@H]1CCC=C2C=C[C@H](C)[C@H](CC[C@@H]3C[C@@H](O)CC(=O)O3)[C@H]21 [MEVASTATIN] | > 20 | > 20
10 | COc1ccc(/C=C/C(=O)Nc2ccccc2C(=O)O)cc1OC | > 20 | > 20
11 | CCN(CC)CCNC(=O)c1ccc(N)c(Cl)c1 [DECLOPRAMIDE] | > 20 | > 20
12 | CCCCCNC(=N)N/N=C/c1c[nH]c2ccc(OC)cc12 [TEGASEROD] | > 20 | > 20
13 | CC(=O)OC[C@H]1O[C@@H](n2ncc(=O)[nH]c2=O)[C@H](OC(C)=O)[C@@H]1OC(C)=O [AZARIBINE] | > 20 | > 20
14 | N=C(N)N/N=C/c1c(Cl)cccc1Cl [GUANABENZ] | > 20 | > 20
15 | Nc1nc(OCc2cc(Br)cs2)c2[nH]cnc2n1 [LOMEGUATRIB] | > 20 | > 20
16 | CN(C)CCOc1ccc(/C(=C(\CCCl)c2ccccc2)c2ccccc2)cc1 | > 20 | > 20

Row | SMILES | IC50 [µM] | IC50 (read-out: pIC50 (converted)) [µM]
17 | Cc1ccc(Nc2c(F)cccc2Cl)c(CC(=O)O)c1 [LUMIRACOXIB] | > 20 | > 20
18 | Clc1ccc(C(OCCN2CCCCC2)c2ccccc2)cc1 (configuration not stated) [CLOPERASTINE] | > 20 | > 20
19 | CN(C)Cc1ccc(S(=O)(=O)n2ccc(/C=C/C(=O)NO)c2)cc1 [RESMINOSTAT] | > 20 | > 20
20 | CC1(C)OC2CC(=O)OCC23C1CC(=O)C1(C)C3CCC2(C)C(c3ccoc3)OC(=O)C3OC321 (configuration not stated) | > 20 | > 20
21 | CC(N)C12CC3CC(CC(C3)C1)C2 (configuration not stated) [RIMANTADINE] | > 20 | > 20
22 | C[C@@H]1CCO[C@H]2Cn3cc(C(=O)NCc4ccc(F)cc4F)c(=O)c(O)c3C(=O)N12 [DOLUTEGRAVIR] | > 20 | > 20
23 | CC(/C=C1\SC(=S)N(CC(=O)O)C1=O)=C\c1ccccc1 | > 20 | > 20
24 | Cc1c(-c2cnccn2)ssc1=S [OLTIPRAZ] | > 20 | > 20
25 | CC(c1ccc(Cl)c(Cl)c1)N1N=C(N)CC1=O (configuration not stated) [MUZOLIMINE] | > 20 | > 20
26 | CNC(=O)CN1CCC(Oc2cc3c(Nc4cccc(Cl)c4F)ncnc3cc2OC)CC1 [SAPITINIB] | > 20 | > 20
27 | OC(CCN1CCCC1)(c1ccccc1)C1CCCCC1 (configuration not stated) [PROCYCLIDINE] | > 20 | > 20
28 | O=C(Oc1cccc2cccnc12)c1ccccc1 [BENZOXIQUINE] | > 20 | > 20
29 | CCOC(=O)[C@H](C)C[C@@H](C)C(=O)N1c2ccccc2C[C@H]1C(=O)O [PENTOPRIL] | > 20 | > 20
30 | COC(=O)[C@H]1[C@@H](OC(=O)c2ccccc2)C[C@@H]2CC[C@H]1N2C [COCAINE] | > 20 | > 20
31 | CCOc1cc(N)c([N+](=O)[O-])cc1C(=O)NC1CCN(CC2CC=CCC2)CC1 (configuration not stated) [CINITAPRIDE] | > 20 | > 20

Reference: ChEMBL document CHEMBL4651402, “Screening of ~5500 FDA-approved drugs and clinical candidates for anti-SARS-CoV-2 activity” (2021)
